Results from article PMC10630959, “Dissimilar Effect of P-Glycoprotein and Breast Cancer Resistance Protein Inhibition on the Distribution of Erlotinib to the Retina and Brain in Humans and Mice” (Molecular Pharmaceutics, 2023).
Entries after “also recorded” stand apart in the source; their conditions may differ. Where two headings read alike, the source gives them in different places.

Legend:
[1] = system: P-gp and BCRP at the human blood–retina barrier (BRB); assay: [^11C]erlotinib PET, distribution to the human retina, baseline vs P-gp and/or BCRP inhibition; format: in vivo
Method: (§4) Medication-free male (n = 20) and female (n = 2) subjects, who were judged to be healthy based on the screening examinations (past medical history, physical examination, blood and urine tests), were enrolled into the study and allocated to the tariquidar (n = 5) or erlotinib group (n = 17).
(§5) The second scan was performed on the same day for the tariquidar group or on a separate day for the erlotinib group. […] The total administered dose of tariquidar was of 5.6 ± 0.6 mg/kg body weight. For the erlotinib group (n = 17), the second PET scan was acquired approximately 3 h after oral intake of 300 mg (n = 7), 650 mg (n = 8), or 1000 mg (n = 2) of erlotinib (Tarceva; Roche Pharma, 50 and 150 mg tablets).[22] […] In addition to the PET scans, magnetic resonance imaging (MRI) of the head (T1-weighted; Magnetom Skyra 3.0-T MRI, Siemens Medical Solutions) was performed on all participants.
(§6) As described previously,[22] serial arterial blood samples were collected during the two PET imaging sessions in both groups. Venous blood samples were collected at baseline and hourly for 8 h and at approximately 21 h after oral erlotinib intake for determination of erlotinib plasma concentrations. A gamma counter, which was cross-calibrated with the PET camera, was used to determine the radioactivity concentrations in blood and plasma aliquots.
(§7) Volume of interest (VOI) analysis was conducted for the retina on MR-to-PET coregistered images using PMOD software (version 3.6; PMOD Technologies Ltd., Zürich, Switzerland). The retina VOI was outlined in a way to avoid spillover of radioactivity from adjacent anatomic structures (e.g., major blood vessels). The volume of the retina VOI was in the range of 0.8–0.9 cm^3. None of the dimensions of the retina VOIs were much smaller than 2 times the full width at half-maximum (2 × 4.36 mm) of the employed PET scanner, meaning that partial volume effects causing an underestimation of the true radiotracer concentration in the VOI were negligible. […] Time-activity curves (TACs) were extracted from the coregistered dynamic PET images and normalized to injected radioactivity amount per body weight and expressed in units of standardized uptake value (SUV). The area under the TACs in plasma (AUCplasma), the retina (AUCretina) and the brain (AUCbrain), from 0 to 60 min after radiotracer injection, was determined with Prism 9.5.0 software (GraphPad Software, La Jolla, CA, USA).

[2] = system: P-gp and BCRP at the mouse BBB
P-gp at the BBB = system: P-gp at the BBB; set-up: method as in PMID 25669913; conditions: human; i.v. tariquidar co-infusion protocol; cited from earlier work
P-gp at the human BRB = system: P-gp at the human BRB; set-up: method as in PMID 27738009; conditions: i.v. tariquidar co-infusion; cited from earlier work
[3] = set-up: method as in PMID 26940368, PMID 30237210; conditions: under the PET inhibition protocols; cited from earlier work
[4] = system: P-gp and BCRP at the human blood–brain barrier (BBB); assay: [^11C]erlotinib PET, distribution to human whole brain gray matter, baseline vs P-gp and/or BCRP inhibition
Method: as §4, §5, §6, §7

[5] = system: OCTs, OCTNs and OATPs at the mouse BBB; assay: [^3H]erlotinib in situ carotid perfusion, brain transport with SLC transporter inhibitors; format: in vivo; conditions: 100 μM fexofenadine, 5 mM TEA, 100 μM estrone-3-sulfate, 0.5 mM ergothioneine, 5 mM L-carnitine
Method: (§1) Transport of [^3H]erlotinib at the luminal BRB and BBB was measured by in situ carotid perfusion.[11],[25] With this method, the vascular composition of the brain and the eye is completely substituted by an artificial fluid, whose constitution can be modified. The perfusion fluid for the in situ carotid perfusion consisted of Krebs carbonate-buffered physiological saline with 128 mM NaCl, 24 mM NaHCO3, 4.2 mM KCl, 2.4 mM NaH2PO4, 1.5 mM CaCl2, 0.9 mM MgSO4, and 9 mM D-glucose, warmed to 37 °C and gassed with 95% O2/5% CO2 to adjust the pH to 7.40. The pH of the perfusion fluid was checked and adjusted with a digital pH meter (±0.05 pH units) immediately before perfusion. Tissue accumulation of [^3H]erlotinib was measured under trans-influx zero to determine the kinetic conditions required to measure transport solely across the membrane, separating the sucrose (vascular) from the nonsucrose (tissue parenchyma) space. […] The first membrane (luminal/vascular) delimiting the sucrose space is the only kinetic interface that affects the distribution parameters of [^3H]erlotinib.
(§2) Mice were anesthetized with ketamine and xylazine (140 and 8 mg/kg, intraperitoneal), and a catheter was inserted into the right carotid artery after ligation of the appropriate vessels. Just before perfusion, the heart was cut. Perfusion started immediately at a constant flow rate of 2.5 mL/min. […] Perfusion was terminated by decapitating the mouse after 60 s. The right eye (without the optic nerve) and the right cerebral hemisphere were removed from the skull and dissected on a freezer pack. The tissues and aliquots of perfusion fluid were weighted, digested (Solvable; PerkinElmer), and mixed with Ultima-gold XR (PerkinElmer). Dual-label counting was carried out in a Tri-Carb 2810TR instrument (PerkinElmer) to measure radioactivity (disintegrations per minute, dpm). […] Therefore, radioactivity in the whole eye was assumed to represent only the posterior segment of the eye, which comprises the retina.
(§3) Calculations were performed as described previously.[11],[25] The initial transport rate, also called brain-eye clearance, expressed as Kin (μL/s/g) was selected as the main outcome parameter. The brain and eye tissue “vascular” volume (Vv; μL/g) was estimated by using the [^14C]sucrose distribution volume. The data for any mouse for which Vv was different from the normal values[25] were excluded from the analysis.

[6] = system: OCTs, OCTNs and OATPs at the mouse BRB; assay: [^3H]erlotinib in situ carotid perfusion, retina transport with SLC transporter inhibitors; format: in vivo; conditions: 100 μM fexofenadine, 5 mM TEA, 100 μM estrone-3-sulfate, 0.5 mM ergothioneine, 5 mM L-carnitine
Method: as §1, §2, §3

[7] = system: P-gp and BCRP at the mouse BRB
healthy volunteers = system: healthy volunteers; set-up: method as in PMID 30237210; conditions: oral 1000 mg dose group; precluded inclusion of additional subjects; cited from earlier work
[8] = set-up: method as in PMID 25165131; conditions: cited from earlier work
[9] = system: P-gp and BCRP at the human BRB and BBB; set-up: method as in PMID 34220523; conditions: cited from earlier work
[10] = i.v. tariquidar infusion, p ≤ 0.05
[11] = co-perfusion with 10 μM inhibitor
[12] = co-perfusion with 20 μM inhibitor
[13] = all combined oral erlotinib dose groups, p ≤ 0.001
[14] = oral erlotinib 300 mg, p ≤ 0.05
[15] = oral erlotinib 650 mg, p ≤ 0.05
[16] = all combined oral erlotinib doses, p ≤ 0.001

COc1cc2c(cc1OC)CN(CCc1ccc(NC(=O)c3cc(OC)c(OC)cc3NC(=O)c3cnc4ccccc4c3)cc1)CC2 [tariquidar]
change in AUCR of [^11C]erlotinib vs baseline scan [1, 10]: −18 ± 8%
change in VT of [^11C]erlotinib vs baseline scan [1, 10]: −25 ± 8%
change in Kin of [^3H]erlotinib vs baseline [2, 11]: +270%
change in Kin of [^3H]erlotinib vs baseline [2, 12]: +280%
increase in brain distribution of (R)-[^11C]verapamil (P-gp at the BBB): approximately 4 fold
increase in retinal VT of (R)-[^11C]verapamil (P-gp at the human BRB): 1.4 fold
unbound plasma concentration in humans [3]: ~30 nM
change in AUCR of [^11C]erlotinib vs baseline scan ([4]; i.v. tariquidar infusion): no significant changes
change in VT of [^11C]erlotinib vs baseline scan ([4]; i.v. tariquidar infusion): did not result in any significant changes; also recorded: no significant changes

CC[N+](CC)(CC)CC [TEA, tetraethylammonium]
significant changes in brain [^3H]erlotinib transport on co-perfusion [5]: None
significant changes in retina [^3H]erlotinib transport on co-perfusion [6]: None

C#Cc1cccc(Nc2ncnc3cc(OCCOC)c(OCCOC)cc23)c1 [erlotinib]
change in AUCR of [^11C]erlotinib vs baseline scan [1, 13]: −31 ± 15%
change in VT of [^11C]erlotinib vs baseline scan [1, 13]: −41 ± 16%
change in AUCR of [^11C]erlotinib vs baseline scan [1, 14]: −34 ± 9%
change in VT of [^11C]erlotinib vs baseline scan [1, 14]: −44 ± 12%
change in AUCR of [^11C]erlotinib vs baseline scan [1, 15]: −31 ± 21%
change in VT of [^11C]erlotinib vs baseline scan [1, 15]: −42 ± 19%
change in Kin of [^3H]erlotinib vs baseline [2, 11]: +215%
change in Kin of [^3H]erlotinib vs baseline [2, 12]: +340%
effect of co-infusion of unlabeled erlotinib on Kin of [^3H]erlotinib in the retina ([7]; mouse, two different doses (10 or 20 μM)): did not decrease
unbound plasma concentration in humans [3]: approximately 0.4 μM
adverse events (healthy volunteers): skin rash
change in AUCR of [^11C]erlotinib vs baseline scan [4, 16]: +15 ± 14%
change in VT of [^11C]erlotinib vs baseline scan [4, 16]: +20 ± 16%
change in AUCR of [^11C]erlotinib vs baseline scan ([4]; oral erlotinib 300 mg): no statistically significant changes
change in VT of [^11C]erlotinib vs baseline scan ([4]; oral erlotinib 300 mg): no statistically significant changes
change in AUCR of [^11C]erlotinib vs baseline scan ([4]; oral erlotinib 650 mg): statistically significant increase
change in VT of [^11C]erlotinib vs baseline scan ([4]; oral erlotinib 650 mg): statistically significant increase

[^3H]erlotinib
Kin at the mouse BRB relative to the BBB ([7]; mouse, in vivo): approximately 2 times

C/C=C/C[C@@H](C)C(=O)[C@H]1C(=O)N[C@@H](C(C)C)C(=O)N(C)CC(=O)N(C)[C@@H](CC(C)C)C(=O)N[C@@H](C(C)C)C(=O)N(C)[C@@H](CC(C)C)C(=O)N[C@@H](C)C(=O)N[C@H](C)C(=O)N(C)[C@@H](CC(C)C)C(=O)N(C)[C@@H](CC(C)C)C(=O)N(C)[C@@H](C(C)C)C(=O)N1C [valspodar]
change in Kin of [^3H]erlotinib vs baseline [2, 11]: +120%

COc1cc2c(cc1OC)CN(CCc1ccc(NC(=O)c3cccc4c(=O)c5cccc(OC)c5[nH]c34)cc1)CC2 [elacridar]
change in Kin of [^3H]erlotinib vs baseline [2, 11]: +277%
increase in [^3H]erlotinib distribution to the retina (Kin) vs baseline ([7]; mouse BRB, co-perfusion with 10 μM inhibitor): +114%

COc1cc2ncnc(Nc3ccc(F)c(Cl)c3)c2cc1OCCCN1CCOCC1 [gefitinib]
pKa [8]: 5.4

C[N+](C)(C)[C@@H](Cc1c[nH]c(=S)[nH]1)C(=O)[O-] [ergothioneine]
significant changes in brain [^3H]erlotinib transport on co-perfusion [5]: None
significant changes in retina [^3H]erlotinib transport on co-perfusion [6]: None

C[C@]12CC[C@@H]3c4ccc(OS(=O)(=O)O)cc4CC[C@H]3[C@@H]1CCC2=O [estrone-3-sulfate]
significant changes in brain [^3H]erlotinib transport on co-perfusion [5]: None
significant changes in retina [^3H]erlotinib transport on co-perfusion [6]: None

COc1cc2c(cc1OC)CN(CCc1ccc(NC(=O)c3cc(OC)c(OC)cc3NC(=O)c3cnc4ccccc4c3)cc1)CC2 [[^11C]tariquidar]
baseline distribution (VT) in the human retina relative to the human brain [9]: 4–5 times

C[N+](C)(C)C[C@H](O)CC(=O)[O-] [L-carnitine]
significant changes in brain [^3H]erlotinib transport on co-perfusion [5]: None
significant changes in retina [^3H]erlotinib transport on co-perfusion [6]: None
